In US20040185566A1, “Polypeptides toxic to nematodes and methods of use” (priority 2003, published 2004):
Where two headings read alike, the source gives them in different places.

Experiments:
[1] = biological target: SMP #1 (Serratia marcescens, UniProt P23694, N428Q/P266L); assay type: biochemical, S. marcescens NRRL B-23112
[2] = tested on: R. similis; assay: Assay for lytic activity against R. similis (microtiter plates); assay type: in vivo
Method: The assays were performed in microtiter plates. Ten microliters of R. similissuspensions were placed in microtiter plate wells. Serially diluted SMP #1 (100U in 0.1 ml stock) was added to the wells. PBS was added to a series of wells containing R. similis as a control. The nematodes were stored at 20° C. and examined for lytic effects or death at 48 and 96 hours.

[3] = tested on: A. suum; assay: Assay for lytic activity against live A. suum; conditions: A. suum

SMP #1, sequence (P23694 17-487 P266L/N428Q): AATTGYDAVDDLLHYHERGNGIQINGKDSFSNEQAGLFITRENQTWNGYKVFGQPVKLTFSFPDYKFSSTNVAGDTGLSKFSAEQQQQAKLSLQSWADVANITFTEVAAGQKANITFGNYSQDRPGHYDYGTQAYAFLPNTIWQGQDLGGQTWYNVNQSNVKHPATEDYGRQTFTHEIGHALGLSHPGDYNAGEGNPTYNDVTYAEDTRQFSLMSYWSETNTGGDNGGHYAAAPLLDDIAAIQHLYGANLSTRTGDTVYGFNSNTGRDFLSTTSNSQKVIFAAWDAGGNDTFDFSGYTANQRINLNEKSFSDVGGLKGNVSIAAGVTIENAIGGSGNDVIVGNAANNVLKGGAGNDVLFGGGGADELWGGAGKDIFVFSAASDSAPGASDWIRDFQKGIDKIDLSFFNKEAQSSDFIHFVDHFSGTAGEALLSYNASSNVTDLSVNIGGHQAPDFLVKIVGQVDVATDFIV

CC(C)C[C@H](NC(=O)[C@H]1O[C@@H]1C(=O)O)C(=O)NCCCCN=C(N)N [E-64]
inhibition of SMP #1 proteolytic activity ([1]; E-64 20 μg/ml): not inhibited

aprotinin
inhibition of SMP #1 proteolytic activity ([1]; aprotinin 4 μg/ml): not inhibited

O=C(O)CN(CCN(CC(=O)O)CC(=O)O)CC(=O)O [EDTA]
inhibition of SMP #1 proteolytic activity ([1]; EDTA 9μg/ml): inhibited

Cl.NCCc1ccc(S(=O)(=O)F)cc1 [Pefabloc SC]
inhibition of SMP #1 proteolytic activity ([1]; Pefabloc SC 2000 μ/ml): not inhibited

serratiopeptidase [SMP #2, reference compound]
Dead (nematodes counted) ([2]; 10 U/well, 10 wells, 20° C.): 109
Live (nematodes counted) ([2]; 10 U/well, 10 wells, 20° C.): 175
% mortality ([2]; 10 U/well, 10 wells, 20° C., significant difference (p < 0.05) between treatments): 38%
lysis / mortality of the nematode on contact ([2]; R. similis): does not lyse or cause significant mortality
lysis / mortality of the nematode on contact [3]: does not lyse or cause significant mortality
